From patent publication US8278452B2, “Heterocyclic compounds and compositions as c-kit and PDGFR kinase inhibitors” (IRM LLC, priority 2008, dated 2012) come the findings set out here.

In experiment [1] the test system is Mo7e cells which endogenously express c-kit. Kind of experiment: Mo7e assay: inhibition of SCF dependent proliferation (MTT). The format is cell-based. In a few lines: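 Mo7e cells stimulated with human recombinant SCF and exposed to two-fold serial compound dilutions from a top concentration of 10 μM. After 48 h at 37 °C, viability measured by MTT colorimetric assay; IC50 derived.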

Experiment [2] has as its system Human TG/HA-VSMC cells. Kind of experiment: Human TG/HA-VSMC proliferation assay (PDGF-BB, CellTiter-Glo). To be noted: Biological data table, PDGF-BB stimulated. It is filed as cell-based. As to the method:
Human TG/HA-VSMC Proliferation Assay
Human TG/HA-VSMC cells (ATCC) were resuspended in DMEM supplemented with 1% FBS and 30 ng/mL recombinant human PDGF-BB at 60,000 cells/mL. The cells were aliquoted into 384 well plates at 50 μL/well and incubated for 4 hours at 37° C. in a humidified incubator in the presence of 5% carbon dioxide. 0.5 μL of test compound diluted in DMSO was added to each well. The plates were returned to the incubator for a further 68 hours. 25 μL of CellTiter-Glo (Promega) was added to each well and the plates were incubated on the bench for 15 minutes. Luminescence was then read using a CLIPR CCD camera (Molecular Devices).

The mark [3] stands for this setting: Mo7e, Biological data table (selectivity c-kit over PDGFR).
Setting [4] is: Table 1, SCF stimulated Mo7e cells, 48 hours, MTT.

SMILES strings stand for the structures.

`Cc1cc2c(cn1)cc(-c1cc(Nc3noc(C4CC4)n3)ccc1C)c(=O)n2C` [Compound A3, 3-(5-(5-cyclopropyl-1,2,4-oxadiazol-3-ylamino)-2-methylphenyl)-1,7-dimethyl-1,6-naphthyridin-2(1H)-one]: the figures for the IC50 in experiment [1] (setting [3]), in experiment [1] (setting [4]) and in experiment [2] were 16 nM, 16 nM and 506 nM, respectively.
`COc1ccc(-c2nc(Nc3ccc(C)c(-c4cc5cnc(C)cc5n(C)c4=O)c3)no2)cc1` [Compound A14, 3-(5-{[5-(4-methoxyphenyl)-1,2,4-oxadiazol-3-yl]amino}-2-methylphenyl)-1,7-dimethyl-1,2-dihydro-1,6-naphthyridin-2-one]: the IC50 came out at 14 nM in experiment [1] (setting [3]), 14 nM in experiment [1] (setting [4]) and 1820 nM in experiment [2].
Consider `Cc1cc2c(cn1)cc(-c1cc(Nc3nc(-c4ccccn4)no3)ccc1C)c(=O)n2C` [Compound E2, 1,7-dimethyl-3-(2-methyl-5-(3-(pyridin-2-yl)-1,2,4-oxadiazol-5-ylamino)phenyl)-1,6-naphthyridin-2(1H)-one], for which the IC50 stood at 256 nM in experiment [1] (setting [3]), 256 nM in experiment [1] (setting [4]) and 2360 nM in experiment [2].
